Here are results for 13 molecules from paper PMC10305287, “Design, Synthesis, and Evaluation of the COX-2 Inhibitory Activities of New 1,3-Dihydro-2H-indolin-2-one Derivatives” (Molecules, 2023).

In one data set the test system is RAW 264.7 cells. The data set is described as follows: Cytotoxicity assay (CCK-8) on RAW 264.7 cells. The data set is classed as cell-based, mouse. As for the experimental part:
The RAW 264.7 murine macrophage cells were obtained from the Cell Bank of the Chinese Academy of Sciences (Shanghai, China). RAW 264.7 cells were cultured in DMEM (Dulbecco’s Modified Eagle Medium) medium supplemented with 10% fetal bovine serum and 1% penicillin/streptomycin at 37 °C and 5% CO2 in a saturated humidified incubator. The Cell Counting Kit-8 (CCK-8) method was used to evaluate the cytotoxicity of all the compounds on RAW 264.7 cells in vitro. […] After 24 h of cultivation, the cells were incubated with a CCK-8 solution (10 µL). After incubation at 37 °C and 5% CO2 for 2–4 h, the optical density (OD) was recorded at 450 nm by a microplate reader. The half-maximal inhibitory concentration (IC50) was calculated by SPSS 22.0 software. PDTC was used as a positive control.

Data set [1] has as its system NO production in LPS-stimulated RAW 264.7 cells. As to the kind of experiment: Inhibition of NO production in LPS-stimulated RAW 264.7 cells. In kind it is cell-based, murine. The conditions noted are these: for Anti-inflammatory activity, NO production (in words): LPS-stimulated RAW 264.7 cells; for IC50: LPS-activated RAW 264.7 cells, mean ± SD, n = 3. As for the experimental part:
RAW 264.7 cells were cultured in DMEM medium supplemented with 10% fetal bovine serum and 1% penicillin/streptomycin at 37 °C and 5% CO2 in a saturated humidified incubator. Then cells were seeded in 24-well plates (4 × 10^5 cells/well) after 24 h of incubation and treated with different concentrations of compounds (80, 40, 20, and 5 μM) for 2 h. The cells were stimulated with LPS (5 μg/mL) for 24 h, the supernatant was transferred to a new 24-well microtiter plate, and the NO concentration in the cell supernatant was calculated using an NO detection kit (Beyotime Company, Shanghai, China).

Data set [2] deals with T1, human recombinant COX-2 enzyme (Homo sapiens, UniProt P35354).
T1 construct: purchased Beyotime Company, Shanghai, China
T1 sequence (P35354 18-604): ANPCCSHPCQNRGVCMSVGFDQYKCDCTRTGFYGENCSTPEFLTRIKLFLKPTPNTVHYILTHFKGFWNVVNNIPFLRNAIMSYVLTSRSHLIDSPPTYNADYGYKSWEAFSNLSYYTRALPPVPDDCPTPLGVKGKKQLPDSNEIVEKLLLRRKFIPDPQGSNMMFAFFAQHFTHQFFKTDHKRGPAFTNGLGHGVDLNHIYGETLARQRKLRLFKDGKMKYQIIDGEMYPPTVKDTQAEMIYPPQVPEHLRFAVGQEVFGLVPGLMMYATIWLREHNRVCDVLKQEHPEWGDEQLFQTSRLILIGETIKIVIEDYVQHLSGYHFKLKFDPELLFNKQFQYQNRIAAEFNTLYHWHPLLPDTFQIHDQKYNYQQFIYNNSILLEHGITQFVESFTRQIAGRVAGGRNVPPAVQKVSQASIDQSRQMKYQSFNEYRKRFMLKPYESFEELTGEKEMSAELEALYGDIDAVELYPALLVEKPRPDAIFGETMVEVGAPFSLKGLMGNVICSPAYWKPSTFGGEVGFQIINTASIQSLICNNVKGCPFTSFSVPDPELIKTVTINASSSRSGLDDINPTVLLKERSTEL
As to the kind of experiment: In vitro COX-2 inhibitory assay (Cyclooxygenase-2 Inhibitor Screening Kit). The conditions noted are these: for IC50: human recombinant COX-2, fluorescence kit, mean ± SD, n = 3; for COX-2 inhibitory activity (in words): human recombinant COX-2, screening kit. In kind it is biochemical. The method, then: The reaction was started by the addition of COX-2 substrate and allowed to proceed for 5 min. The intensity of fluorescence at an emission wavelength of 590 nm upon 560 nm excitation was measured using a microplate reader (Thermo Varioskan LUX, Waltham, MA, USA). All tests were repeated three times independently.

The next data set deals with COX-2. The conditions noted are these: read-out: IC50 (COX-2); cited from earlier work.
Where [3] appears, read: CCK-8, concentration not stated.

“Also recorded” adds a separate entry of the source. Bounds are passed on as bounds.

Broadly, the melting point is the temperature, or range, at which the solid turns liquid. In turn, `COc1cccc(C=C2C(=O)N(C(C)=O)c3cc(Cl)ccc32)c1` [Compound 4s] yielded a melting point of 141.3 to 143.2 °C. Besides, in the data set on RAW 264.7 cells (CCK-8, at 100 μM), the “Cytotoxicity (in words)” value was “almost no cytotoxicity”.

As to `CC(=O)N1C(=O)/C(=C/c2cccc(C(F)(F)F)c2)c2ccc(C(F)(F)F)cc21` [Compound 4b], the melting point lay in the range of 91.3 to 92.8 °C.

What is called IC50 is the concentration that inhibits the measured activity by half. `CC(=O)N1C(=O)C(=Cc2cccc(C(F)(F)F)c2)c2cc(N)ccc21` [Compound 4e] showed a melting point of 165.9 to 166.2 °C. In addition, the “Anti-inflammatory activity, NO production (in words)” value in data set [1] is reported as “obvious anti-inflammatory activity”. Moreover, 13.5 ± 0.48 µM corresponded to half-maximal inhibition in data set [1] (Mus musculus, RAW264.7) (IC50). In addition, the half-maximal inhibitory concentration (IC50) in data set [2] is 3.34 ± 0.05 µM. Besides, in the data set with RAW 264.7 cells (CCK-8, at 100 μM), the “Cytotoxicity (in words)” value is “almost no cytotoxicity; also recorded: no significant cytotoxicity”. In addition, the “Cytotoxicity (in words)” value in the data set on RAW 264.7 cells (setting [3]) is “weak cytotoxicity”.

As to `CC(=O)N1C(=O)/C(=C\c2cccc(C(F)(F)F)c2)c2ccc(C(F)(F)F)cc21` [Compound 4a], the melting point lay in the range of 131.2 to 132.1 °C. For the same molecule, the “Anti-inflammatory activity, NO production (in words)” value in data set [1] is listed as “obvious anti-inflammatory activity”. The molecule further returned a half-inhibitory concentration (IC50) in data set [1] (Mus musculus, RAW264.7) of 17.8 ± 1.86 µM. Also, the IC50 in data set [2] came to 19.9 ± 4.76 µM. The “Cytotoxicity (in words)” value in the data set on RAW 264.7 cells (setting [3]) is “weak cytotoxicity”.

In turn, `CC(=O)N1C(=O)C(=Cc2cccc(C(F)(F)F)c2)c2ccccc21` [Compound 4j] had a melting point of 121.5 to 123.3 °C. For the same molecule, in data set [1], the “Anti-inflammatory activity, NO production (in words)” value is reported as “obvious anti-inflammatory activity”. This molecule also yielded an IC50 in data set [1] (Mus musculus, RAW264.7) of 16.3 ± 0.35 µM. Moreover, the “Cytotoxicity (in words)” value with RAW 264.7 cells (setting [3]) was “weak cytotoxicity”.

In data set [1], `S=C(S)N1CCCC1` [PDTC, Ammonium pyrrolidinedithiocarbamate, reference compound] yielded an IC50 of 13.7 ± 0.88 µM.

As to `COc1ccc2c(c1)c(CC(=O)O)c(C)n2C(=O)c1ccc(Cl)cc1` [indomethacin], the IC50 with COX-2 is […].

`CC(=O)N1C(=O)C(=Cc2ccccc2C(F)(F)F)c2ccc(Cl)cc21` [Compound 4k] registered a melting point of 131 to 133.6 °C. Also, the IC50 in data set [2] is above 20 µM.

Regarding `CC(=O)N1C(=O)C(=Cc2ccc(C(F)(F)F)cc2)c2ccc(Cl)cc21` [Compound 4i], the melting point lay within 142.9 to 144.1 °C. Also, the “Anti-inflammatory activity, NO production (in words)” value in data set [1] is reported as “obvious anti-inflammatory activity”. The molecule further displayed an IC50 in data set [1] (Mus musculus, RAW264.7) of 20.4 ± 1.61 µM. The “Cytotoxicity (in words)” value in the data set with RAW 264.7 cells (setting [3]) is reported as “weak cytotoxicity”.

As to `O=C1Nc2ccc(NS(=O)(=O)c3ccc([N+](=O)[O-])cc3)cc2C1=Cc1cccc(C(F)(F)F)c1` [Compound 9d], the melting point lay within 226.5 to 226.9 °C. Besides, the “Anti-inflammatory activity, NO production (in words)” value in data set [1] is “obvious anti-inflammatory activity”. This molecule also showed an IC50 in data set [1] (Mus musculus, RAW264.7) of 10 ± 0.27 µM. In the data set on RAW 264.7 cells (setting [3]), the “Cytotoxicity (in words)” value was “weak cytotoxicity”.

Molecule `Cc1ccc(S(=O)(=O)Nc2ccc3c(c2)C(=Cc2cccc(C(F)(F)F)c2)C(=O)N3)cc1` [Compound 9f] yielded a melting point of 191.1 to 191.5 °C.

In turn, `O=C1Cc2cc(/N=C/c3cccc(C(F)(F)F)c3)ccc2N1` [Compound 9h] displayed a melting point of 166.3 to 166.8 °C. Moreover, in data set [1], the “Anti-inflammatory activity, NO production (in words)” value is “no anti-inflammatory activity”. For the same molecule, in data set [2], the half-inhibitory concentration (IC50) was 2.35 ± 0.04 µM and the “COX-2 inhibitory activity (in words)” value was “good inhibitory activity”. For the same molecule, in the data set with RAW 264.7 cells (CCK-8, at 100 μM), the “Cytotoxicity (in words)” value was “almost no cytotoxicity”. Also, in the data set on RAW 264.7 cells (setting [3]), the “Cytotoxicity (in words)” value is listed as “no cytotoxicity”.

As to `O=C1Cc2cc(N=Cc3cc(C(F)(F)F)cc(C(F)(F)F)c3)ccc2N1` [Compound 9i, 5-((3,5-bis(trifluoromethyl)benzylidene)amino)indolin-2-one], the melting point lay in the range of 191.1 to 191.5 °C. Also, in data set [1], the “Anti-inflammatory activity, NO production (in words)” value is given as “no anti-inflammatory activity”. In data set [2], the IC50 was 2.42 ± 0.1 µM and the “COX-2 inhibitory activity (in words)” value was “good inhibitory activity”. For the same molecule, the “Cytotoxicity (in words)” value in the data set on RAW 264.7 cells (CCK-8, at 100 μM) is “almost no cytotoxicity”. Also, the “Cytotoxicity (in words)” value in the data set on RAW 264.7 cells (setting [3]) is given as “no cytotoxicity”.
